We go through two molecules from US11655448B2, “Placenta-derived matrix and methods of preparing and use thereof” (LIFENET HEALTH, priority 2015, dated 2023).

Assay [1] relates to dorsal root ganglia (DRGs). In words: Dorsal root ganglia attachment and growth on substrates. The format is cell-based. Here is the method:
The ability for ectodermal cell attachment and growth on HuMATRIX was also assessed using dorsal root ganglia (DRGs). Near 100% attachment of DRGs was observed on HuMATRIX, Laminin, and decellularized placenta with urea extraction, but nearly no DRGs attached to culture plastic alone, with the cells stained for beta-III-tubulin and DAPI to assess the cell morphology.

Another assay concerns MCF7 tumor cell. The following applies: reported in the literature; cited from earlier work.

Take Laminin: the “attachment of DRGs” value in assay [1] is roughly 100%.

B1: Placental lactogen: human chorionic sommatomammotropin (aka placental lactogen) found in HuMATRIX (protein, UniProt P0DML2 27-217, looked up)
Chorionic somatomammotropin …: VQTVPLSRLFDHAMLQAHRAHQLAIDTYQEFEETYIPKDQKYSFLHDSQTSFCFSDSIPTPSNMEETQQKSNLELLRISLLLIESWLEPVRFLRSMFANNLVYDTSDSDDYHLLKDLEEGIQTLMGRLEDGSRRTGQILKQTYSKFDTNSHNHDALLKNYGLLYCFRKDMDKVETFLRMVQCRSVEGSCGF
For B1, the “increase in MCF7 tumor cell proliferation” value in the assay with MCF7 tumor cell is recorded as 4.4 fold.
